Measured values as given in PubChem BioAssay AID248 (DTP/NCI, 2004).
“And” between values parts separate entries of the source, which are not always exact repeats. Identical values can stand only once. Toxic doses and inconclusive results are not listed. Rule as the data show it: active = T/C of 150% or more; inactive = T/C below 125%.

System: L1210 leukemia ip in BDF1 mice, survival T/C
Assay: NCI In Vivo Anticancer Drug Screen. Data for tumor model L1210 Leukemia (intraperitoneal) in B6D2F1 (BDF1) mice
Conditions: endpoint: mean survival time, higher = longer survival
Summary of the method: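 In this screen, tumor-bearing mice given compound are compared to those given vehicle, and their survival values are reported as a treated-to-control quotient.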

[1] = dose: 100.0 mg/kg/injection, schedule: Q01DX009 (ip), vehicle: Klucel (hydroxypropylcellulose) (HPC)
[2] = dose: 100.0 mg/kg/injection, schedule: Q04DX003 (ip), vehicle: Klucel (hydroxypropylcellulose) (HPC)
[3] = dose: 100.0 mg/kg/injection, schedule: Q01DX009 (ip), vehicle: saline with Tween-80
[4] = dose: 200.0 mg/kg/injection, schedule: Q01DX009 (ip), vehicle: saline with Tween-80
[5] = dose: 100.0 mg/kg/injection, schedule: Q01DX001 (ip), vehicle: saline with Tween-80
[6] = dose: 12.5 mg/kg/injection, schedule: Q01DX009 (ip), vehicle: saline with Tween-80
[7] = dose: 25.0 mg/kg/injection, schedule: Q01DX009 (ip), vehicle: saline with Tween-80
[8] = dose: 200.0 mg/kg/injection, schedule: Q01DX009 (ip), vehicle: Klucel (hydroxypropylcellulose) (HPC)
[9] = dose: 200.0 mg/kg/injection, schedule: Q04DX003 (ip), vehicle: Klucel (hydroxypropylcellulose) (HPC)
[10] = dose: 400.0 mg/kg/injection, schedule: Q01DX009 (ip), vehicle: Klucel (hydroxypropylcellulose) (HPC)
[11] = dose: 400.0 mg/kg/injection, schedule: Q04DX003 (ip), vehicle: Klucel (hydroxypropylcellulose) (HPC)
[12] = dose: 100.0 mg/kg/injection, schedule: Q04DX003 (ip), vehicle: saline with Tween-80
[13] = dose: 200.0 mg/kg/injection, schedule: Q04DX003 (ip), vehicle: saline with Tween-80
[14] = dose: 400.0 mg/kg/injection, schedule: Q04DX003 (ip), vehicle: saline with Tween-80
[15] = dose: 100.0 mg/kg/injection, schedule: Q01DX001 (ip), vehicle: other

Measured: T/C

CC12C3C(=O)NC45CCCC41C5(c1ccccc1)C32c1ccccc1 (stereo not given)
inactive: dose: 100.0 mg/kg/injection, schedule: Q01DX001 (ip), vehicle: Klucel (hydroxypropylcellulose) (HPC) 96 % of control | dose: 200.0 mg/kg/injection, schedule: Q01DX001 (ip), vehicle: Klucel (hydroxypropylcellulose) (HPC) 96 % of control | dose: 400.0 mg/kg/injection, schedule: Q01DX001 (ip), vehicle: Klucel (hydroxypropylcellulose) (HPC) 94 % of control

Cc1ccc(C)c(CN(C)C)c1O
inactive: dose: 6.0 mg/kg/injection, schedule: Q04DX003 (ip), vehicle: Klucel (hydroxypropylcellulose) (HPC) 98 % of control | dose: 12.5 mg/kg/injection, schedule: Q04DX003 (ip), vehicle: Klucel (hydroxypropylcellulose) (HPC) 96 % of control | dose: 25.0 mg/kg/injection, schedule: Q04DX003 (ip), vehicle: Klucel (hydroxypropylcellulose) (HPC) 89 % of control | dose: 50.0 mg/kg/injection, schedule: Q01DX009 (ip), vehicle: Klucel (hydroxypropylcellulose) (HPC) 97 % of control | dose: 50.0 mg/kg/injection, schedule: Q04DX003 (ip), vehicle: Klucel (hydroxypropylcellulose) (HPC) 107 % of control | [1] 89 % of control | [2] 100 % of control and 89 % of control

CC(C)c1ccc(C(=O)O)cc1S(=O)(=O)F
inactive: [3] 95 % of control | [4] 98 % of control

c1ccc(C2SCc3ccc(cc3)Sc3ccc(cc3)CS2)cc1
inactive: [5] 91 % of control | dose: 200.0 mg/kg/injection, schedule: Q01DX001 (ip), vehicle: saline with Tween-80 88 % of control | dose: 400.0 mg/kg/injection, schedule: Q01DX001 (ip), vehicle: saline with Tween-80 91 % of control

Nc1cc2c(cc1Cl)-c1ccc([N+](=O)[O-])cc1/C2=N\O
inactive: dose: 100.0 mg/kg/injection, schedule: Q01DX001 (ip), vehicle: carboxymethylcellulose (CMC) 104 % of control | dose: 200.0 mg/kg/injection, schedule: Q01DX001 (ip), vehicle: carboxymethylcellulose (CMC) 116 % of control | dose: 400.0 mg/kg/injection, schedule: Q01DX001 (ip), vehicle: carboxymethylcellulose (CMC) 104 % of control

c1ccc(C2=NCCCO2)cc1
inactive: [6] 100 % of control | [7] 103 % of control | dose: 50.0 mg/kg/injection, schedule: Q01DX009 (ip), vehicle: saline with Tween-80 102 % of control | dose: 50.0 mg/kg/injection, schedule: Q04DX003 (ip), vehicle: saline 91 % of control | [3] 102 % of control | dose: 100.0 mg/kg/injection, schedule: Q04DX003 (ip), vehicle: saline 96 % of control

Cc1cccc(N(CCOC(=O)Nc2ccc(Cl)cc2)CCOC(=O)Nc2ccc(Cl)cc2)c1
inactive: dose: 100.0 mg/kg/injection, schedule: Q01DX001 (ip), vehicle: saline 94 % of control | dose: 200.0 mg/kg/injection, schedule: Q01DX001 (ip), vehicle: saline 94 % of control | dose: 400.0 mg/kg/injection, schedule: Q01DX001 (ip), vehicle: saline 96 % of control

COc1ccc(OCC2CO2)cc1 (stereo not given)
inactive: [1] 103 % of control | [2] 100 % of control | [8] 103 % of control | [9] 96 % of control | [10] 102 % of control | [11] 102 % of control

O=S(=O)(NC1CCc2ccccc21)c1ccccc1 (stereo not given)
inactive: [3] 95 % of control | [4] 90 % of control

Cc1ccnc(NC(=O)CCc2ccccc2)c1
inactive: dose: 100.0 mg/kg/injection, schedule: Q04DX002 (ip), vehicle: Klucel (hydroxypropylcellulose) (HPC) 95 % of control | dose: 200.0 mg/kg/injection, schedule: Q04DX002 (ip), vehicle: Klucel (hydroxypropylcellulose) (HPC) 100 % of control | dose: 400.0 mg/kg/injection, schedule: Q04DX002 (ip), vehicle: Klucel (hydroxypropylcellulose) (HPC) 92 % of control

Nc1cc(=O)[nH]c(=S)n1-c1ccc(Br)cn1
inactive: [12] 98 % of control | [13] 86 % of control | [14] 104 % of control

C=C(Br)CN(CCCC)C(C)=O
inactive: [1] 100 % of control | [2] 103 % of control | [8] 108 % of control | [9] 100 % of control and 92 % of control

CCC(C)(C)C(=O)Nc1cccc(O)c1
inactive: [12] 92 % of control | [13] 90 % of control | [14] 95 % of control

O=C(O)/C=C/c1cnccn1
inactive: dose: 100.0 mg/kg/injection, schedule: Q04DX003 (ip), vehicle: carboxymethylcellulose (CMC) 103 % of control | dose: 200.0 mg/kg/injection, schedule: Q04DX003 (ip), vehicle: carboxymethylcellulose (CMC) 93 % of control | dose: 400.0 mg/kg/injection, schedule: Q04DX003 (ip), vehicle: carboxymethylcellulose (CMC) 97 % of control

Cc1ccc(CN=C=S)cc1
inactive: dose: 6.25 mg/kg/injection, schedule: Q01DX009 (ip), vehicle: saline with Tween-80 103 % of control | [6] 98 % of control | [7] 97 % of control

CCC(O)C1CCCCN1 (stereo not given)
inactive: [12] 91 % of control | [13] 104 % of control

CCCN(CCC)NC(=O)c1ccc(N=NN(C)C)cc1
inactive: dose: 25.0 mg/kg/injection, schedule: Q01DX001 (ip), vehicle: other 106 % of control | dose: 50.0 mg/kg/injection, schedule: Q01DX001 (ip), vehicle: other 98 % of control | [15] 106 % of control | [5] 101 % of control

CCCCCCCCCCCCCCCCS(=O)(=O)c1ccc(NN)cc1
inactive: [1] 89 % of control | [2] 97 % of control | [8] 91 % of control | [9] 98 % of control | [10] 90 % of control | [11] 105 % of control

Cc1[nH]nc2c(NO)ncnc12
inactive: [15] 98 % of control | dose: 200.0 mg/kg/injection, schedule: Q01DX001 (ip), vehicle: other 98 % of control | dose: 400.0 mg/kg/injection, schedule: Q01DX001 (ip), vehicle: other 102 % of control

FC(F)(F)c1nc[nH]c1C(F)(F)F
inactive: dose: 6.25 mg/kg/injection, schedule: Q01DX009 (ip), vehicle: water 103 % of control | dose: 12.5 mg/kg/injection, schedule: Q01DX009 (ip), vehicle: water 97 % of control | dose: 25.0 mg/kg/injection, schedule: Q01DX009 (ip), vehicle: water 97 % of control

CCCCCO/N=C\c1c2c(O)c3c(O)c(C)c4c(c3c1O)C(=O)C(C)(O/C=C\C(OC)C(C)C(OC(C)=O)C(C)C(O)C(C)C(O)C(C)/C=C\C=C(\C)C(=O)N2)O4 (stereo not given)
inactive: dose: 50.0 mg/kg/injection, schedule: Q04DX003 (ip), vehicle: water 100 % of control | dose: 100.0 mg/kg/injection, schedule: Q04DX003 (ip), vehicle: water 94 % of control | dose: 200.0 mg/kg/injection, schedule: Q04DX003 (ip), vehicle: water 100 % of control | dose: 400.0 mg/kg/injection, schedule: Q04DX003 (ip), vehicle: water 102 % of control

CC(=O)N1CCCC1=O
inactive: [1] 100 % of control | [2] 96 % of control | [8] 100 % of control | [9] 102 % of control | [10] 95 % of control | [11] 102 % of control

O=C(Nc1ccc(Cl)c(Cl)c1)OCC#CCOC(=O)Nc1ccc(Cl)c(Cl)c1
inactive: dose: 100.0 mg/kg/injection, schedule: Q01DX009 (ip), vehicle: saline 99 % of control | dose: 200.0 mg/kg/injection, schedule: Q01DX009 (ip), vehicle: saline 91 % of control | dose: 400.0 mg/kg/injection, schedule: Q01DX009 (ip), vehicle: saline 88 % of control
